Test results taken from US6452032B1, “Organosilyl compounds having nuclear hormone receptor modulating activity” (Allergan Sales, LLC, priority 1999, dated 2002).
Read-outs that look alike come from different tables or passages of the source.

Legend:
RARα [1] = biological target: T1, RARα (Homo sapiens, UniProt P10276); assay: Transactivation assay, luciferase reporter, full length RARα; assay type: cell-based; details: concentration giving 50% maximal transcription of the reporter gene; read-out: Trans (EC50) RARα
T1 sequence (P10276 1-462): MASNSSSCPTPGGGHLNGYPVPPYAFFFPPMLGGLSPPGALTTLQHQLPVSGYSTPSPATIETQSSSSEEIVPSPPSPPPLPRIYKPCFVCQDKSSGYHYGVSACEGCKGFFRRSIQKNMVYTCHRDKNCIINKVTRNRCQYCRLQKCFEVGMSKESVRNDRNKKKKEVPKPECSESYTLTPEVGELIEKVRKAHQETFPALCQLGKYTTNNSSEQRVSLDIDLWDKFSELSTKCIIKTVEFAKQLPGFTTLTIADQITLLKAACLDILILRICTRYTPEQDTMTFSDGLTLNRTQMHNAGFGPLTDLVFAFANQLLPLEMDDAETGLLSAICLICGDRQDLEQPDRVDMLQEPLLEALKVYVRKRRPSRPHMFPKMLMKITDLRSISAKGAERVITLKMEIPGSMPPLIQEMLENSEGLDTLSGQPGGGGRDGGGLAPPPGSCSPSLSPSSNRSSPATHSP
Description: (§1) Retinoic acid receptor transactivation activity and binding efficiencies were determined essentially as described in U.S. Pat. Nos.: 5,298,429 and 5,071,773, incorporated by reference herein. Transactivation assays employed expression plasmids encoding the full length receptors RARα, RARβ, RARγ, RXRα, RXRβ, and RXRγ. Reporter plasmids contained the herpes virus thymidine kinase promoter and the appropriate retinoid acid receptor response element (RAREs) or retinoid X receptor response element (RXREs) positioned upstream of an open coding region encoding firefly luciferase.
(§2) These compounds are designated AGN 192192, AGN 192337, AGN 192294, AGN 192295, and AGN 192452, respectively. EC50 designates the concentration of the tested compound which was able to give a 50% maximal transcription of the reporter gene; KD50 indicates the concentration of the tested compound at which 50% of the compound molecules are bound to the receptor. NT indicates those points that were not tested in the particular experiment.

RARβ [2] = biological target: T2, RARβ (Homo sapiens, UniProt P10826); assay: Transactivation assay, luciferase reporter, full length RARβ; assay type: cell-based
T2 construct: expressed in transfected cells
T2 sequence (P10826 1-455): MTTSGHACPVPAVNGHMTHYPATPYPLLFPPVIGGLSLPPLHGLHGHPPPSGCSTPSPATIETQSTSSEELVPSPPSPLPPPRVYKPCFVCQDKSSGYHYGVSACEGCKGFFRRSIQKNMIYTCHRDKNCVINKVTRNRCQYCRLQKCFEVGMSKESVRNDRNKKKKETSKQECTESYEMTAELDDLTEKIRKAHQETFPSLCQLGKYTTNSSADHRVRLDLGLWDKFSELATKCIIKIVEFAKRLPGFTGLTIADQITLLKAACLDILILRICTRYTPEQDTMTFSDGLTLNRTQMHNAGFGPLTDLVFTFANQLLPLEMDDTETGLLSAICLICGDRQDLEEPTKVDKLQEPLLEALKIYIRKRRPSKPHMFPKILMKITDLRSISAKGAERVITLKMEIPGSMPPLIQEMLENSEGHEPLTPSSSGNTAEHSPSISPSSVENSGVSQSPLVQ
Description: as §1, §2

RXRα [3] = biological target: T3, RXRα (Homo sapiens, UniProt P19793); assay: Transactivation assay, luciferase reporter, full length RXRα; assay type: cell-based; details: concentration giving 50% maximal transcription of the reporter gene; read-out: Trans (EC50) RXRα
T3 construct: encoding the full length receptors RARα, RARβ, RARγ, RXRα, RXRβ, and RXRγ; expressed in transfected cells
T3 sequence (P19793 1-462): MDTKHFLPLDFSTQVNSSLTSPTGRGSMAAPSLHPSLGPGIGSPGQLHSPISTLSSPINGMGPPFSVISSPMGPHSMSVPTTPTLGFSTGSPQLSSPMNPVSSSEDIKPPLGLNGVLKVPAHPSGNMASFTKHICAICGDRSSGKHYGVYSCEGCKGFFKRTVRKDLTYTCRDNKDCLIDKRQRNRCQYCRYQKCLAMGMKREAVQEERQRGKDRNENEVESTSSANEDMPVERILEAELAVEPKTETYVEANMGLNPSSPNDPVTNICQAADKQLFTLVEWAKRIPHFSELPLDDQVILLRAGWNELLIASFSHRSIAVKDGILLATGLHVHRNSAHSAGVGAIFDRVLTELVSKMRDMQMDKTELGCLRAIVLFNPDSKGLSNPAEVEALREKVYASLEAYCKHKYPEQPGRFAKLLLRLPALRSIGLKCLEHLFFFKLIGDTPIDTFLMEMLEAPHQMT
Description: as §1, §2

RXRβ [4] = biological target: T4, RXRβ (Homo sapiens, UniProt P28702); assay: Transactivation assay, luciferase reporter, full length RXRβ; assay type: cell-based; details: concentration giving 50% maximal transcription of the reporter gene; read-out: Trans (EC50) RXRβ
T4 construct: encoding the full length receptors RARα, RARβ, RARγ, RXRα, RXRβ, and RXRγ; expressed in transfected cells
T4 sequence (P28702 1-533): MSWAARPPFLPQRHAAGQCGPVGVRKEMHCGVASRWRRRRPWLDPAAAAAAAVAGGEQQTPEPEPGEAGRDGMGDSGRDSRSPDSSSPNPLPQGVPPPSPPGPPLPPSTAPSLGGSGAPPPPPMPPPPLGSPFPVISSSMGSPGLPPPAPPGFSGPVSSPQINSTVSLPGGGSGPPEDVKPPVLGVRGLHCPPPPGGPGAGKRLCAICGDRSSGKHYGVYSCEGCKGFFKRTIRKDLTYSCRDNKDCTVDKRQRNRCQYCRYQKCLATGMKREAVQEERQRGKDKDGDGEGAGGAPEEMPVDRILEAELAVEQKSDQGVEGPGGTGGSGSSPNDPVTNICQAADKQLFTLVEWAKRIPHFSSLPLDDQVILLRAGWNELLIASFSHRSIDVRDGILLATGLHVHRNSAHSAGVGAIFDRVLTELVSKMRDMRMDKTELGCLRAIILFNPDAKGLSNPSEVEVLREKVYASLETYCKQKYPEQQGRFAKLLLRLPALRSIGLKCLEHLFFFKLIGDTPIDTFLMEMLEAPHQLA
Description: as §1, §2

RXRγ [5] = biological target: T5, RXRγ (Homo sapiens, UniProt P48443); assay: Transactivation assay, luciferase reporter, full length RXRγ; assay type: cell-based; details: concentration giving 50% maximal transcription of the reporter gene; read-out: Trans (EC50) RXRγ
T5 construct: encoding the full length receptors RARα, RARβ, RARγ, RXRα, RXRβ, and RXRγ; expressed in transfected cells
T5 sequence (P48443 1-463): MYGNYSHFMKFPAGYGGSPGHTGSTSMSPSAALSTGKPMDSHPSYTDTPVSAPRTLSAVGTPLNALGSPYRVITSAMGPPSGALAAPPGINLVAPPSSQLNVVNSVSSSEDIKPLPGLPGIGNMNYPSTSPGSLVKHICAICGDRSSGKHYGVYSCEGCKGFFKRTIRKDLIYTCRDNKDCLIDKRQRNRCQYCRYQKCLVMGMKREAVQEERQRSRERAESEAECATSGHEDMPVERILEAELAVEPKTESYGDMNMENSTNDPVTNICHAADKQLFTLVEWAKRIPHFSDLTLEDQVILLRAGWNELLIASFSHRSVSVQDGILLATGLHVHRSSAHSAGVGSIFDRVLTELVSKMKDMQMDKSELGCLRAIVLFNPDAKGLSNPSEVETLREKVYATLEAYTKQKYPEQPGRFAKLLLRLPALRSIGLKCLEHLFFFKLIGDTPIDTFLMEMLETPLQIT
Description: as §1, §2

RARα [6] = biological target: T1, RARα; assay: Competition binding assay, radiolabeled all-trans-retinoic acid, RARα
Description: (§3) Binding assays were performed using a classic competition assay format in which cloned receptor RAR mand RXR molecules were first loaded with either radiolabeled all-trans-retinoic acid (RAR) or radiolabeled 9-cis retinoic acid (RXR), and then the amount of radioactivity liberated with increasing concentration of test compound was measured.
as §2

RARβ [7] = biological target: T2, RARβ; assay: Competition binding assay, radiolabeled all-trans-retinoic acid, RARβ
Description: as §3, §2

RARγ [8] = biological target: T6, RARγ (Homo sapiens, UniProt P13631); assay: Competition binding assay, radiolabeled all-trans-retinoic acid, RARγ
T6 sequence (P13631 1-454): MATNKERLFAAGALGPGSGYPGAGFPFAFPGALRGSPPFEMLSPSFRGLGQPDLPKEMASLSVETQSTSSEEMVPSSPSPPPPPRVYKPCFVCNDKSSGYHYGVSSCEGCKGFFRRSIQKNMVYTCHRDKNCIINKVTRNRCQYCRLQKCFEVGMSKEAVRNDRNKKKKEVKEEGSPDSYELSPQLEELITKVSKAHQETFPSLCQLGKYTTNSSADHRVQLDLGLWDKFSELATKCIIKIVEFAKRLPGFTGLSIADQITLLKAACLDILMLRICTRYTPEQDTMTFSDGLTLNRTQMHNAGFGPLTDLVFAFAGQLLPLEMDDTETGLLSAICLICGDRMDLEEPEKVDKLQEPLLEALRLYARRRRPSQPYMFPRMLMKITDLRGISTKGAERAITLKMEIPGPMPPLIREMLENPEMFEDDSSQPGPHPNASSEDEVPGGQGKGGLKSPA
Description: as §3, §2

RXRα [9] = biological target: T3, RXRα; assay: Competition binding assay, radiolabeled 9-cis retinoic acid, RXRα; details: competition with radiolabeled 9-cis retinoic acid; read-out: Bind (KD50) RXRα
Description: as §3, §2

RXRβ [10] = biological target: T4, RXRβ; assay: Competition binding assay, radiolabeled 9-cis retinoic acid, RXRβ; details: competition with radiolabeled 9-cis retinoic acid; read-out: Bind (KD50) RXRβ
Description: as §3, §2

RXRγ [11] = biological target: T5, RXRγ; assay: Competition binding assay, radiolabeled 9-cis retinoic acid, RXRγ; details: competition with radiolabeled 9-cis retinoic acid; read-out: Bind (KD50) RXRγ
Description: as §3, §2

RARγ [12] = biological target: T6, RARγ; assay: Transactivation assay, luciferase reporter, full length RARγ; assay type: cell-based
Description: as §1, §2

[13] = concentration giving 50% maximal transcription of the reporter gene, read-out: Trans (EC50) RARβ
[14] = competition with radiolabeled all-trans-retinoic acid, read-out: Bind (KD50) RARα
[15] = competition with radiolabeled all-trans-retinoic acid, read-out: Bind (KD50) RARβ
[16] = competition with radiolabeled all-trans-retinoic acid, read-out: Bind (KD50) RARγ

Row | EC50 (RARα [1]) | EC50 (RARβ [2]; [13]) | EC50 (RXRα [3]) | EC50 (RXRγ [5]) | Kd (RARα [6]; [14]) | Kd (RARβ [7]; [15]) | Kd (RARγ [8]; [16]) | SMILES | further results
1 | 550 nM | 88 nM | 990 nM | 960 nM | 2640 nM | 699 nM | 2020 nM | Cc1cc2c(cc1/C(=C/c1ccc(C(=O)C(=O)O)cc1)[Si](C)(C)C)C(C)(C)CCC2(C)C [Compound 192192] | EC50 (RXRβ [4]): 780 nM; Kd (RXRα [9]): > 1000 nM; Kd (RXRβ [10]): > 1000 nM; Kd (RXRγ [11]): > 1000 nM
2 | – | – | – | – | – | 8000 nM | 8940 nM | Cc1cc2c(cc1/C(=C/c1ccc(C(=O)O)s1)[Si](C)(C)C)C(C)(C)CCC2(C)C [Compound 192294] | –
3 | 350 nM | 290 nM | – | – | 1300 nM | 499 nM | 1550 nM | CC1(C)CCC(C)(C)c2cc(/C(=C/c3ccc(C(=O)O)s3)[Si](C)(C)C)ccc21 [Compound 192295] | EC50 (RARγ [12]; concentration giving 50% maximal transcription of the reporter gene, read-out: Trans (EC50) RARγ): 330 nM
4 | – | – | – | – | – | – | – | CC1(C)CCC(C)(C)c2cc(/C(=C/c3ccc(C(=O)C(=O)O)cc3)[Si](C)(C)C)ccc21 [Compound 192337] | EC50 (RARβ [2]): 260 nM; EC50 (RARγ [12]): 1500 nM; Kd (RARα [6]): 2280 nM; Kd (RARβ [7]): 2430 nM; Kd (RARγ [8]): 5840 nM
5 | – | – | 3100 nM | 2900 nM | – | 3300 nM | 4520 nM | CC1(C)CC(C)(C)c2cc(/C(=C/c3ccc(C(=O)C(=O)O)cc3)[Si](C)(C)C)ccc2O1 [Compound 192452] | –
